Test results as given in patent US20220204512A1, “SUBSTITUTED FUSED BICYCLIC DERIVATIVE, PREPARATION METHOD THEREFOR, AND APPLICATION THEREOF IN MEDICINES” (Jiangsu Hengrui Medicine Co., Ltd., priority 2019, published 2022).

Key:
ERK1 = molecular target: T1, ERK1 (Homo sapiens, UniProt P27361); assay: ERK1 enzyme activity test (ADP-Glo Kinase Assay); assay type: biochemical; conditions: ADP-Glo chemiluminescence
T1 construct: purchased R&D 1879-KS-010
Procedure: (§1) The purpose of this experiment is to detect the inhibitory ability of the compounds of the present disclosure on the ERK1 enzyme activity and to evaluate the in vitro activity of the compounds based on the IC50. The ADP-Glo™ Kinase Assay Kit was used in this experiment. The substrate was phosphorylated under the action of the enzyme and ADP was produced at the same time. The ADP-Glo reagent was added to remove the unreacted ATP in the reaction system, and the ADP produced by the reaction was detected with kinase detection reagent. In the presence of the compound, the inhibition rate of the compound was calculated by measuring the signal value.
Preparation of Enzyme and substrate: ERK1 (1879-KS-010, R&D) and substrate (AS-61777, anaspec) were prepared to 0.75 ng/p1 and 100 μM respectively in a buffer, and then the enzyme solution and the substrate solution were prepared into a mixed solution at a volume ratio of 2:1 for later use. ATP was diluted to 300 μM with buffer. The compound was dissolved in DMSO (dimethyl sulfoxide, Shanghai Titan Scientific Co., Ltd.) to prepare a stock solution with an initial concentration of 20 mM, and then Bravo was used to prepare the compound. Finally, 3 μL of a mixed solution of enzyme and substrate, and 1 μL of different concentrations of the compound (the initial concentration was 50 μM, 4-fold dilution) were added to each well of the 384-well plate, and the plate was incubated at 30° C. for 10 minutes, and finally 1 μL of 300 μM ATP solution was added to each well, and the plate was incubated at 30° C. for 2 hours. Then 5 μL of ADP-Glo was added, and the plate was incubated at 30° C. for 40 minutes. Then 10 μL of kinase detection buffer was added, and the plate was incubated at 30° C. for 40 minutes. The 384-well plate was taken out and placed in a microplate reader (BMG labtech, PHERAstar FS), and the chemiluminescence was measured by a microplate reader.
(§2) Microsoft Excel, Graphpad Prism 5 was used to process and analyze the data.

ERK2 = molecular target: T2, ERK2 (Homo sapiens, UniProt P28482); assay: ERK2 enzyme activity test (ADP-Glo Kinase Assay); assay type: biochemical; conditions: ADP-Glo chemiluminescence
T2 construct: purchased R&D 1879-KS-010
T2 sequence (P28482 2-360 limits assumed): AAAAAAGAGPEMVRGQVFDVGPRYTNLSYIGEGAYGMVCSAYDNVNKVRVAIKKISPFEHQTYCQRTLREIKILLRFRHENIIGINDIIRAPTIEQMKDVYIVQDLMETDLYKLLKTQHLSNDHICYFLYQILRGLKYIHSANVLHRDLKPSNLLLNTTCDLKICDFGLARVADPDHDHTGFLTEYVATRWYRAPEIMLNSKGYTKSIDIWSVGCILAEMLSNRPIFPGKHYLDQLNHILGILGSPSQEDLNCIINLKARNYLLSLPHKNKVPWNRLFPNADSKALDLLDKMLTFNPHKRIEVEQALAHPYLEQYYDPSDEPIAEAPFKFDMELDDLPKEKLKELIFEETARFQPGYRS
Procedure: as §1, with “the ERK2” for “the ERK1”, “enzyme activity,” for “enzyme activity”
Preparation of enzyme and substrate: ERK2 (1879-KS-010, R&D) and substrate (custom peptide, Gill Biochemical) were prepared to 0.75 ng/ml and 1500 μM in a buffer (40 mM Tris, 20 mM MgCl2, 0.1 mg/ml BSA, 50 μM DTT), and then the enzyme solution and the substrate solution were prepared into a mixed solution at a volume ratio of 2:1 for later use. ATP was diluted to 500 μM with buffer. The compound was dissolved in DMSO (dimethyl sulfoxide, Shanghai Titan Scientific Co., Ltd.) to prepare a stock solution with an initial concentration of 20 mM, and then Bravo was used to prepare the compound. Finally, 3 μL of a mixed solution of enzyme and substrate, and 1 μL substrate of different concentrations of the compound (the initial concentration is 50 μM, 4-fold dilution) were added to each well of the 384-well plate, and the plate was incubated at 30° C. for 10 minutes, and finally 1 μL 500 μM ATP solution was added to each well, and the plate was incubated at 30° C. for 2 hours. Then 5 μL of ADP-Glo was added, and the plate was incubated at 30° C. for 40 minutes. Then 10 μL of kinase detection buffer was added, and the plate was incubated at 30° C. for 40 minutes. The 384-well plate was taken out and placed in a microplate reader (BMG labtech, PHERAstar FS), and the chemiluminescence was measured by a microplate reader.
as §2

Colo205 cells = assay: In vitro proliferation inhibition test on Colo205 tumor cells (CellTiter-Glo); assay type: cell-based; conditions: Homo sapiens, COLO 205, 72 h; Colo205 cell proliferation, 3 days of culture, CTG
Procedure: The purpose of this experiment is to test the inhibitory activity of the compounds of the present disclosure on the proliferation of Colo205 cells (CCL-222, ATCC) in vitro. The cells were treated in vitro with different concentrations of the compounds. After 3 days of culture, the cell proliferation was tested with CTG (CellTiter-Glo® Luminescent Cell Viability Assay, Promega, Catalog No. G7573) reagent, and the in vitro activity of the compounds was evaluated according to the ICso value.
In the following, the in vitro proliferation inhibition test method of Colo205 cells is taken as an example to illustrate the method for testing the in vitro proliferation inhibitory activity of the compounds of the present disclosure on tumor cells. This method is also applicable to, but not limited to, the in vitro proliferation inhibitory activity test on other tumor cells.
Colo205 cells were digested, centrifuged and then resuspended. The single cell suspension was mixed well, and the density of viable cells was adjusted to 5.0×10^4 cells/ml with cell culture medium (RPMI1640+2% FBS), and 95 μL/well was added to a 96-well cell culture plate. Only 100 μL medium was added to the peripheral wells of the 96-well plate. The culture plate was incubated in an incubator for 24 hours (37° C., 5% CO2).
The compound was dissolved in DMSO (dimethyl sulfoxide, Shanghai Titan Scientific Co., Ltd.) and prepared as a stock solution with an initial concentration of 20 mM. The initial concentration of the small molecule compound was 2 mM, and then 4-fold diluted into 9 points, and the 10th point was DMSO. Another 96-well plate was taken, and 90 μL of cell culture medium (RPMI1640+2% FBS) was added to each well. Then 10 μL of different concentrations of the test sample was added to each well. The mixture was mixed well, and then 5μL of different concentrations of the test sample was added to the cell culture plate. Each sample has two duplicate holes. The culture plate was incubated in the incubator for 3 days (37° C., 5% CO2). The 96-well cell culture plate was taken out. 50 μL solution of CTG was added to each well, and the plate was incubated for 10 minutes at room temperature. In a microplate reader (BMG labtech, PHERAstar FS), chemiluminescence was measured with the microplate reader.
as §2

[1] = Pharmacokinetics assay in mice; assay type: in vivo; conditions: female, mouse, po, C57 mice, intragastric, 2 mg/kg, plasma
Procedure: Mice were used as test animals. The drug concentration in plasma at different time points was determined by LC/MS/MS method after administration of the compounds 1-P2, 2-P2, 4-P2, 6-P2, 9-P2, 10-P2 and 11-P2. The pharmacokinetic behavior of the compounds of the present disclosure was studied and evaluated in mice.
Sixty-three C57 mice (female, equally divided into seven groups) were purchased from Shanghai Jiesijie Laboratory Animal Co., LTD. (Certificate No.: SCXK(Shanghai)2013-0006).
A certain amount of the test compound was weighed, dissolved in 5% of DMSO by volume and 5% of tween 80, followed by the additon of 90% of normal saline to prepare a 0.1 mg/mL colorless, clear and transparent solution.
After an overnight fast, C57 mice were intragastrically administered the test compound at an administration dose of 2 mg/kg and an administration volume of 0.2 ml/10 g.
The mice were intragastrically administered the test compounds. 0.1 ml of blood was taken before the administration and at 0.25, 0.5, 1.0, 2.0, 4.0, 6.0, 8.0, 11.0 and 24.0 hours after the administration. The samples were stored in heparinized tubes, and centrifuged for 10 minutes at 3500 rpm to separate the blood plasma. The plasma samples were stored at −20° C.
The content of the test compound in the plasma of mice after intragastrical administration of the test compound at different concentrations was determined: 25 μL of […] plasma at each time point after the administration was taken, followed by the addition of 50 μL of the internal standard camptothecin solution (100ng/mL) and 200 μL of acetonitrile. The resulting solution was vortex-mixed for 5 minutes, and centrifuged for 10 minutes (4000 rpm). 4 μL of the supernatant was taken from the plasma samples for LC/MS/MS analysis.

T1 sequence (P27361 whole entry): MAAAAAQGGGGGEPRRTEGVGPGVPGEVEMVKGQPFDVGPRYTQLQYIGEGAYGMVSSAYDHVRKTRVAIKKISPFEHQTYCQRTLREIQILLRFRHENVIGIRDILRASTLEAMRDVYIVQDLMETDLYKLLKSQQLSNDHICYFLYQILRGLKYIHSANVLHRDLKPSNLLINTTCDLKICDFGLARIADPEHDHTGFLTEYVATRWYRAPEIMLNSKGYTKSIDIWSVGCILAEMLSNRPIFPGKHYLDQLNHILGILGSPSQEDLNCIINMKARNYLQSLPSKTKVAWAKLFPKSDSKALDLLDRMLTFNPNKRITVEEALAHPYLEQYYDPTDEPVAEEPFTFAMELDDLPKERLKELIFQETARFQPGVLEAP

Row | IC50 (ERK1) | IC50 (ERK2) | IC50 (Colo205 cells) | Vd/F ([1]; read-out: Apparent distribution volume Vz/F) | AUC ([1]; read-out: Area under curve AUC) | CL/F ([1]; read-out: Clearance CLz/F) | half-life ([1]; read-out: Half-life T1/2 (converted)) | Cmax ([1]; read-out: Plasma concentration Cmax) | MRT ([1]; read-out: Residence time MRT) | SMILES
1 | 9.4 nM | 0.9 nM | 82 nM | – | – | – | – | – | – | COc1cc(F)cc([C@@H](CO)NC(=O)[C@@H](C)N2CCn3cc(-c4nc(Nc5ccnn5C)ncc4C)cc3C2=O)c1 [Example 12-P2, (R)-N-((S)-1-(3-Fluoro-5-methoxyphenyl)-2-hydroxyethyl)-2-(7-(5-methyl-2-((1-methyl-1H-pyrazol-5-yl)amino)pyrimidin-4-yl)-1-oxo-3,4-dihydropyrrolo[1,2-a]pyrazin-2(1H)-yl)propanamide]
2 | 7 nM | 1.5 nM | 17.4 nM | 3.75 L/kg | 1110 ng·h/mL | 29.7 mL/min/kg | 1.46 h | 501 ng/mL | 1.84 h | COc1cc(F)cc([C@@H](CO)NC(=O)[C@@H](C)N2CCc3cc(-c4nc(Nc5ccnn5C)ncc4C)cn3C2=O)c1 [Example 1-P2, (R)-N-((S)-1-(3-Fluoro-5-methoxyphenyl)-2-hydroxyethyl)-2-(6-(5-methyl-2-((1-methyl-1H-pyrazol-5-yl)amino)pyrimidin-4-yl)-1-oxo-3,4-dihydropyrrolo[1,2-c]pyrimidin-2(1H)-yl)propanamide]
3 | 8.5 nM | 1.1 nM | 100 nM | – | – | – | – | – | – | Cc1cccc([C@@H](CO)NC(=O)[C@@H](C)N2CCn3cc(-c4nc(Nc5ccnn5C)ncc4C)cc3C2=O)c1 [Example 10-P2, (R)-N-((S)-2-Hydroxy-1-(m-tolyl)ethyl)-2-(7-(5-methyl-2-((1-methyl-1H-pyrazol-5-yl)amino)pyrimidin-4-yl)-1-oxo-3,4-dihydropyrrolo[1,2-a]pyrazin-2(1H)-yl)propanamide]
4 | 4.6 nM | 1.75 nM | – | – | – | – | – | – | – | COc1cc(F)cc([C@@H](CO)NC(=O)[C@@H](C)N2CCn3cc(-c4nc(NC5CCOCC5)ncc4Cl)nc3C2=O)c1 [Example 3-P2, (R)-2-(2-(5-Chloro-2-((tetrahydro-2H-pyran-4-yl)amino)pyrimidin-4-yl)-8-oxo-5,6-dihydroimidazo[1,2-a]pyrazin-7(8H)-yl)-N-((S)-1-(3-fluoro-5-methoxyphenyl)-2-hydroxyethyl)propanamide]
5 | – | 2.8 nM | 31 nM | – | – | – | – | – | – | C[C@H](C(=O)N[C@H](CO)c1cccc(Cl)c1)N1CCn2cc(-c3nc(NC4CCOCC4)ncc3Cl)cc2C1=O [Example 13-P2, (R)-2-(7-(5-Chloro-2-((tetrahydro-2H-pyran-4-yl)amino)pyrimidin-4-yl)-1-oxo-3,4-dihydropyrrolo[1,2-a]pyrazin-2(1H)-yl)-N—((S)-1-(3-chlorophenyl)-2-hydroxyethyl)propanamide]
6 | – | 6.7 nM | 67 nM | – | – | – | – | – | – | Cc1cccc([C@@H](CO)NC(=O)[C@@H](C)N2CCn3cc(-c4ccnc(NC5CCOCC5)n4)cc3C2=O)c1 [Example 19-P2, (R)-N-((S)-2-Hydroxy-1-(m-tolyl)ethyl)-2-(1-oxo-7-(2-((tetrahydro-2H-pyran-4-yl)amino)pyrimidin-4-yl)-3,4-dihydropyrrolo[1,2-a]pyrazin-2(1H)-yl)propanamide]
7 | 22 nM | 3.1 nM | 38 nM | – | – | – | – | – | – | COc1cc(F)cc([C@@H](CO)NC(=O)[C@@H](C)N2CCn3cc(-c4nc(NC5CCOCC5)ncc4C)cc3C2=O)c1 [Example 17-P2, (R)-N-((S)-1-(3-Fluoro-5-methoxyphenyl)-2-hydroxyethyl)-2-(7-(5-methyl-2-((tetrahydro-2H-pyran-4-yl)amino)pyrimidin-4-yl)-1-oxo-3,4-dihydropyrrolo[1,2-a]pyrazin-2(1H)-yl)propanamide]
8 | – | 4.2 nM | 54 nM | – | – | – | – | – | – | C[C@H](C(=O)N[C@H](CO)c1cccc(Cl)c1)N1CCc2cc(-c3nc(NC4CCOCC4)ncc3Cl)cn2C1=O [Example 16-P2, (R)-2-(6-(5-Chloro-2-((tetrahydro-2H-pyran-4-yl)amino)pyrimidin-4-yl)-1-oxo-3,4-dihydropyrrolo[1,2-c]pyrimidin-2(1H)-yl)-N-((S)-1-(3-chlorophenyl)-2-hydroxyethyl)propanamide]
